According to the supplement of paper PMC8671470:

Legend:
Conditions in all cases: 72 h
KCL-22 [1] = assay: cell viability (% survival relative to DMSO control, bortezomib = 0%); higher = less cytotoxic
Method in brief: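 Reported values are percent survival from duplicate wells, averaged. Fifteen myeloid leukaemia cell lines were treated in 384-well plates with compounds at 1, 10, 100, 1000 or 10000 nM for 72 h at 37 °C in 5% CO2. Signals from CellTiter-Glo luminescence were scaled with vehicle as 100% and a 10 µM positive control as 0%.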

KG-1 = test system: KG-1
Method in brief: (§1)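 In 384-well plates holding acoustically pre-printed compounds at five tenfold doses from 1 to 10,000 nM, in duplicate, fifteen myeloid leukaemia cell lines were grown in RPMI 1640 for 72 h at 37 °C with 5% CO2. Luminescent ATP viability was scaled between vehicle and a positive control at 10 µM. The IC50 was then taken from log-logistic dose–response fits with four parameters.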

MV4-11 = test system: MV4-11
Method in brief: as §1

THP-1 = test system: THP-1
Method in brief: as §1

KU-812 = test system: KU-812
Method in brief: as §1

ML-2 = test system: ML-2
Method in brief: as §1

HL-60 = test system: HL-60
Method in brief: as §1

KCL-22 [2] = test system: KCL-22
Method in brief: as §1

HEL = test system: HEL
Method in brief: as §1

NOMO-1 = test system: NOMO-1
Method in brief: as §1

Mono-Mac-6 = test system: Mono-Mac-6
Method in brief: as §1

MOLM-13 = test system: MOLM-13
Method in brief: as §1

SHI-1 = test system: SHI-1
Method in brief: as §1

LAMA-84 = test system: LAMA-84
Method in brief: as §1

K-562 = test system: K-562
Method in brief: as §1

BV-173 = test system: BV-173
Method in brief: as §1

Compound | cell viability (KCL-22 [1]; 1 nM) [%] | cell viability (KCL-22 [1]; 10 nM) [%] | cell viability (KCL-22 [1]; 100 nM) [%] | cell viability (KCL-22 [1]; 1000 nM) [%] | cell viability (KCL-22 [1]; 10000 nM) [%] | IC50 (cell viability) (KG-1) [µM] | IC50 (cell viability) (MV4-11) [µM] | IC50 (cell viability) (THP-1) [µM] | IC50 (cell viability) (KU-812) [µM] | IC50 (cell viability) (ML-2) [µM] | IC50 (cell viability) (HL-60) [µM] | IC50 (cell viability) (KCL-22 [2]) [µM] | IC50 (cell viability) (HEL) [µM] | IC50 (cell viability) (NOMO-1) [µM] | IC50 (cell viability) (Mono-Mac-6) [µM] | IC50 (cell viability) (MOLM-13) [µM] | IC50 (cell viability) (SHI-1) [µM] | IC50 (cell viability) (LAMA-84) [µM] | IC50 (cell viability) (K-562) [µM] | IC50 (cell viability) (BV-173) [µM]
C#Cc1cnc(O)nc1O [Eniluracil] | 109 | 115 | 113 | 104 | 113 | > 10 | > 10 | > 10 | > 10 | > 10 | > 10 | > 10 | > 10 | > 10 | > 10 | > 10 | > 10 | > 10 | > 10 | > 10
CC(/C=C1\SC(=S)N(CC(=O)O)C1=O)=C\c1ccccc1 [Epalrestat] | 106 | 99.8 | 100 | 101 | 102 | > 10 | > 10 | > 10 | > 10 | > 10 | > 10 | > 10 | > 10 | > 10 | > 10 | > 10 | > 10 | > 10 | > 10 | > 10
CCOC(=O)[C@@]1(CCCCCCOc2ccc(Cl)cc2)CO1 [Etomoxir] | 104 | 112 | 116 | 101 | 78.9 | > 10 | > 10 | > 10 | > 10 | > 10 | > 10 | > 10 | > 10 | > 10 | > 10 | > 10 | > 10 | 5.83 | > 10 | 6.76
Cc1c(-c2ccccc2)oc2c(C(=O)OCCN3CCCCC3)cccc2c1=O.Cl [Flavoxate] | 94.6 | 93.2 | 102 | 95.6 | 87 | > 10 | > 10 | > 10 | > 10 | > 10 | > 10 | > 10 | > 10 | > 10 | > 10 | > 10 | > 10 | > 10 | > 10 | > 10
O=C(O)CCc1ccc(NCc2cccc(Oc3ccccc3)c2)cc1 [GW9508] | 101 | 89.5 | 89.6 | 102 | 93.4 | > 10 | > 10 | > 10 | > 10 | > 10 | > 10 | > 10 | > 10 | > 10 | > 10 | > 10 | > 10 | > 10 | > 10 | > 10
c1ccc2c(c1)OCC(=C1NCCN1)O2 [Idazoxan] | 105 | 104 | 78.6 | 91 | 87.4 | > 10 | > 10 | > 10 | > 10 | > 10 | > 10 | > 10 | > 10 | > 10 | > 10 | > 10 | > 10 | > 10 | > 10 | > 10
C[C@]12O[C@H](C[C@]1(O)CO)n1c3ccccc3c3c4c(c5c6ccccc6n2c5c31)CNC4=O [Lestaurtinib] | 104 | 91 | 59.6 | 21.8 | 1.08 | 0.0227 | 0.00331 | 0.848 | 0.0467 | 0.139 | 0.0912 | 0.149 | 0.0504 | 0.188 | 0.0143 | 0.00461 | 0.0633 | 0.0512 | 0.182 | 0.0201
O=C(O)c1nn(Cc2ccc(Cl)cc2Cl)c2ccccc12 [Lonidamine] | 103 | 111 | 107 | 84 | 90.7 | > 10 | > 10 | > 10 | > 10 | > 10 | > 10 | > 10 | > 10 | > 10 | > 10 | > 10 | > 10 | > 10 | > 10 | > 10
C1CCc2nnc(C34CC5CC(CC(C5)C3)C4)n2CC1 [MERCK-544] | 99.2 | 106 | 95.8 | 106 | 116 | > 10 | > 10 | > 10 | > 10 | > 10 | > 10 | > 10 | > 10 | > 10 | > 10 | > 10 | > 10 | > 10 | > 10 | > 10
CC(Cc1ccc(O)c(O)c1)C(C)Cc1ccc(O)c(O)c1 (stereo not given) [Masoprocol] | 99.8 | 85.9 | 120 | 108 | 66.2 | 6.63 | 3.8 | > 10 | > 10 | 3.42 | 3.15 | > 10 | > 10 | > 10 | 2.08 | > 10 | > 10 | > 10 | > 10 | 3.66
CC(C(=O)O)C(=O)O [Methylmalonate] | 91.7 | 100 | 112 | 88.3 | 93.6 | > 10 | > 10 | > 10 | > 10 | > 10 | > 10 | > 10 | > 10 | > 10 | > 10 | > 10 | > 10 | > 10 | > 10 | > 10
COc1c(C)c2c(c(O)c1C/C=C(\C)CCC(=O)O)C(=O)OC2 [Mycophenolic acid] | 105 | 98.8 | 79.8 | 24.7 | 8.9 | 2.34 | 0.507 | > 10 | 0.954 | 0.333 | 0.652 | 0.289 | 1.01 | 2.55 | 1.83 | 0.183 | 2.52 | 0.771 | 0.561 | 0.679
